# Experimental data as given in patent US10206908B2, “3-(1H-pyrrolo[3,2-C]pyridin-2-YL)-1H-pyrazolo[3,4-C]pyridines and therapeutic uses thereof” (Samumed, LLC, priority 2015, dated 2019).
# Tests used:
# Type in all cases: cell-based
# SW480 colon cancer cells = assay: Cell viability assay (CellTiter-Blue) in SW480 colon cancer cells; details: Homo sapiens; for EC50: 96 h, SW480 cell viability, four days; for inhibition at 10 µM: SW480, read-out: percent inhibition at 10 μM
# Experimental: Representative compounds were screened using the following assay procedure to assess the effect on cell viability as described below.
# Approximately 2×10^3 SW480 colon cancer cells were seeded into each well and allowed to incubate in the presence or absence of compound for four days at 37° C./5% CO2. Eight replicates of DMSO-treated cells served as controls and cells treated with compound were performed in duplicate.
# After incubation, 20 μL of CellTiter-Blue (Promega) was added to each well allowed to incubate for approximately 3 hours. This reagent was a buffered solution which contains resazurin, metabolically active cells were able to reduce rezarurin (blue) into resorufin (pink) which was highly fluorescent. This measured fluorescence was used as a readout for cell viability.
# [1] = tested on: primary human mesenchymal stem cells (hMSCs); assay: Induction of chondrogenesis in hMSCs (chondrogenic nodules, Rhodamine B/Nile Red); details: 6 days; for EC50: concentration required to induce 50% levels of chondrogenesis vs TGF-β3, read-out: Conc (nM) of 50% TGF-β3 activity; for Emax: relative to TGF-β3 (10 ng/mL) positive control, read-out: Max. Activity as % TGF-β3 activity
# Text: Representative compounds were screened using primary human mesenchymal stem cells (hMSCs) to determine their ability to induce chondrogenesis (process by which cartilage is developed).
# Human Mesenchymal Stem Cell Culture: Primary human mesenchymal stem cells (hMSCs) were purchased from Lonza (Walkersville, Md.) and expanded in Mesenchymal Stem Cell Growth Media (Lonza). Cells between passage 3 and 6 were used for the experiments.
# Number of nodules in each well was normalized to the average of 3 DMSO treated wells on the same plate using Excel (Microsoft Inc.). The normalized averages (fold change over DMSO) of 3 replicate wells for each compound concentration were calculated. Due to solubility limitations of some of the compounds, curve fitting was incomplete leading to inaccurate EC50 determinations.
# Using TGF-β3 as a positive control, the concentration of representative compounds required to induce 50% levels of chondrogenesis is reported. In addition, the maximum activity of each compound and the respective dose that each compound reached maximum chondrogenesis activity is reported.
# [2] = tested on: Wnt activity (Sp5-Luc reporter, SW480 colon carcinoma cells); assay: Screening assay for Wnt activity: Sp5-Luc reporter gene assay in SW480 colon carcinoma cells; details: Homo sapiens; for EC50: Sp5-Luc reporter, SW480 cells, overnight incubation; for inhibition at 10 µM: SW480, read-out: percent inhibition at 10 μM
# Text: The screening assay for Wnt activity is described as follows. Reporter cell lines can be generated by stably transducing cancer cell lines (e.g., colon cancer) or primary cells (e.g., IEC-6 intestinal cells) with a lentiviral construct that includes a Wnt-responsive promoter driving expression of the firefly luciferase gene.
# SW480 colon carcinoma cells were transduced with a lentiviral vector expressing luciferase with a human Sp5 promoter consisting of a sequence of eight TCF/LEF binding sites. SW480 cells stably expressing the Sp5-Luc reporter gene and a hygromycin resistance gene were selected by treatment with 150 μg/mL of hygromycin for 7 days. These stably transduced SW480 cells were expanded in cell culture and used for all further screening activities. […] For Sp5-Luc reporter gene assays, the cells were plated at 4,000 cells/well in 384-well plates with medium containing 1% fetal bovine serum and incubated overnight at 37° C. and 5% CO2. Following incubation, 20 μl of BrightGlo luminescence reagent (Promega) was added to each well of the 384-well assay plates. The plates were placed on an orbital shaker for 2 min and then luminescence was quantified using the Envision (Perkin Elmer) plate reader. Readings were normalized to DMSO only treated cells, and normalized activities were utilized for EC50 calculations using the dose-response log (inhibitor) vs. response-variable slope (four parameters) nonlinear regression feature available in GraphPad Prism 5.0 (or Dotmatics).
# IL-6 (THP-1 cells) = assay: IL-6 inhibition in LPS-stimulated THP-1 monocytes (HTRF); details: Homo sapiens; for EC50: IL-6, THP-1 cells, LPS 500 ng/mL, 22 hours; for inhibition at 10 µM: THP-1, read-out: percent inhibition at 10 μM
# Experimental: Compound Screening: THP-1 cells were cultured in basal media with 1% FBS for 24 hours before the start of the assay. […] THP-1 cells were plated at 5000 cells/well in the 384-well plates and incubated at 37° C. for 2 h. 500 ng/mL of LPS was added after 2 hours and cells were incubated for another 22 hours at 37° C. Plates were spun in a centrifuge for 1 minute at […] and a mixture of anti-IL6 XL665, and anti-IL6 Cryptate diluted in reconstitution buffer (Cisbio Inc.) was added to each well. Following incubation for 3 hrs at room temperature, Homogeneous Time-Resolved Fluorescence (HTRF) was measured using the Envision (Perkin Elmer) at 665 nm and […]. The ratio of fluorescence at 665 nm to 620 nm was used as a readout for IL6 quantification. All samples were processed in duplicate. Readings were normalized to DMSO treated cells and normalized activities were utilized for EC50 calculations using the dose-response log (inhibitor) vs. response-variable slope (four parameters) nonlinear regression feature available in GraphPad Prism 5.0 (or Dotmatics).
# [3] = tested on: primary human fibroblasts derived from IPF patients (LL29 cells) treated with TGF-β1; assay: Inhibition of the fibrotic process: αSMA staining in TGF-β1 treated LL29 fibroblasts; details: Fibroblast; for EC50: 96 h, % αSMA positive LL29 cells, TGF-β1 20 ng/mL, 4 days; for inhibition at 10 µM: read-out: percent inhibition at 10 μM
# Experimental: Representative compounds were screened using primary human fibroblasts (derived from IPF patients) treated with TGF-β1 to determine their ability to inhibit the fibrotic process.
# LL29 cells are plated at 1,500 cells/well in 80 μL/well F12 medium supplemented with 1% Fetal Bovine Serum. […] Wells treated with TGF-β1 and containing DMSO were used as controls. […] Following incubation for 4 days, SYTOX green nucleic acid stain (Life Technologies [Thermo Fisher Scientific]) was added to the wells at a final concentration of 1 μM and incubated at room temperature for 30 min.
Structure (SMILES),EC50 (SW480 colon cancer cells),EC50 [1],Emax [1],EC50 [2],EC50 (IL-6 (THP-1 cells)),EC50 [3],inhibition at 10 µM (IL-6 (THP-1 cells)),inhibition at 10 µM (SW480 colon cancer cells),inhibition at 10 µM [2],inhibition at 10 µM [3]
"CCNCc1cncc(-c2cc3c(-c4cc5c(N6CCCCC6)nccc5[nH]4)n[nH]c3cn2)c1 [Compound 174, N-((5-(3-(4-(Piperidin-1-yl)-1H-pyrrolo[3,2-c]pyridin-2-yl)-1H-pyrazolo[3,4-c]pyridin-5-yl)pyridin-3-yl)methyl)ethanamine]",2370 nM,10 nM,183%,2770 nM,1020 nM,1200 nM,–,–,–,–
"CC(C)CC(=O)Nc1cncc(-c2cc3c(-c4cc5c(-c6ccc(F)cc6)nccc5[nH]4)n[nH]c3cn2)c1 [Compound 30, N-(5-(3-(4-(4-Fluorophenyl)-1H-pyrrolo[3,2-c]pyridin-2-yl)-1H-pyrazolo[3,4-c]pyridin-5-yl)pyridin-3-yl)-3-methylbutanamide]",298 nM,900 nM,71%,289 nM,669 nM,356 nM,–,–,–,–
"Fc1ccccc1-c1nccc2[nH]c(-c3n[nH]c4cnc(-c5cncnc5)cc34)cc12 [Compound 83, 3-(4-(2-Fluorophenyl)-1H-pyrrolo[3,2-c]pyridin-2-yl)-5-(pyrimidin-5-yl)-1H-pyrazolo[3,4-c]pyridine]",1600 nM,–,47%,2140 nM,> 10000 nM,1040 nM,27.3%,–,–,–
"CC(C)(C)CC(=O)Nc1cncc(-c2cc3c(-c4cc5cnccc5[nH]4)n[nH]c3cn2)c1 [Compound 268, N-(5-(3-(1H-Pyrrolo[3,2-c]pyridin-2-yl)-1H-pyrazolo[3,4-c]pyridin-5-yl)pyridin-3-yl)-3,3-dimethylbutanamide]",5040 nM,10 nM,59%,1890 nM,3460 nM,4010 nM,–,–,–,–
"CN1CCN(c2nccc3[nH]c(-c4n[nH]c5cnc(-c6cncc(N)c6)cc45)cc23)CC1 [Compound 227, 5-(3-(4-(4-Methylpiperazin-1-yl)-1H-pyrrolo[3,2-c]pyridin-2-yl)-1H-pyrazolo[3,4-c]pyridin-5-yl)pyridin-3-amine]",> 10000 nM,–,50%,> 10000 nM,> 10000 nM,5410 nM,39.5%,20.5%,46.2%,–
"CC(C)(C)CC(=O)Nc1cncc(-c2cc3c(-c4cc5c(-c6cc(F)cc(CNS(C)(=O)=O)c6)nccc5[nH]4)n[nH]c3cn2)c1 [Compound 492, N-(5-(3-(4-(3-Fluoro-5-(methylsulfonamidomethyl)phenyl)-1H-pyrrolo[3,2-c]pyridin-2-yl)-1H-pyrazolo[3,4-c]pyridin-5-yl)pyridin-3-yl)-3,3-dimethylbutanamide]",> 10000 nM,–,–,> 10000 nM,> 10000 nM,> 10000 nM,4.6%,8.6%,17.3%,1.8%
"CN1CCN(c2nccc3[nH]c(-c4n[nH]c5cnc(-c6cncnc6)cc45)cc23)CC1 [Compound 251, 3-(4-(4-Methylpiperazin-1-yl)-1H-pyrrolo[3,2-c]pyridin-2-yl)-5-(pyrimidin-5-yl)-1H-pyrazolo[3,4-c]pyridine]",> 10000 nM,–,–,> 10000 nM,> 10000 nM,> 10000 nM,12.1%,0%,41.7%,17.6%
"CS(=O)(=O)NCc1cc(F)cc(-c2nccc3[nH]c(-c4n[nH]c5cnc(-c6cncc(CN7CCCC7)c6)cc45)cc23)c1 [Compound 490, N-(3-Fluoro-5-(2-(5-(5-(pyrrolidin-1-ylmethyl)pyridin-3-yl)-1H-pyrazolo[3,4-c]pyridin-3-yl)-1H-pyrrolo[3,2-c]pyridin-4-yl)benzyl)methanesulfonamide]",> 10000 nM,–,–,> 10000 nM,3860 nM,> 10000 nM,–,5.5%,28.7%,0%
"c1cc2[nH]c(-c3n[nH]c4cnc(-c5cncc(OC6CCCCC6)c5)cc34)cc2c(N2CCCCC2)n1 [Compound 607, 5-(5-(Cyclohexyloxy)pyridin-3-yl)-3-(4-(piperidin-1-yl)-1H-pyrrolo[3,2-c]pyridin-2-yl)-1H-pyrazolo[3,4-c]pyridine]",1100 nM,–,–,1440 nM,3810 nM,1140 nM,–,–,–,–
"Fc1cccc(-c2nccc3[nH]c(-c4n[nH]c5cnc(C6CCNCC6)cc45)cc23)c1 [Compound 505, 3-(4-(3-Fluorophenyl)-1H-pyrrolo[3,2-c]pyridin-2-yl)-5-(piperidin-4-yl)-1H-pyrazolo[3,4-c]pyridine]",> 10000 nM,–,–,> 10000 nM,> 10000 nM,> 10000 nM,16.4%,5.2%,28.3%,0%
"CCCCC(=O)Nc1cncc(-c2cc3c(-c4cc5c(-c6cccc(F)c6)nccc5[nH]4)n[nH]c3cn2)c1 [Compound 19, N-(5-(3-(4-(3-Fluorophenyl)-1H-pyrrolo[3,2-c]pyridin-2-yl)-1H-pyrazolo[3,4-c]pyridin-5-yl)pyridin-3-yl)pentanamide]",1330 nM,–,–,1140 nM,1090 nM,960 nM,–,–,–,–
"Cn1cc(-c2cc3c(-c4cc5c(-c6cccnc6)nccc5[nH]4)n[nH]c3cn2)cn1 [Compound 556, 5-(1-Methyl-1H-pyrazol-4-yl)-3-(4-(pyridin-3-yl)-1H-pyrrolo[3,2-c]pyridin-2-yl)-1H-pyrazolo[3,4-c]pyridine]",> 10000 nM,–,–,78 nM,503 nM,69 nM,–,0%,–,–
"CS(=O)(=O)NCc1cc(F)cc(-c2nccc3[nH]c(-c4n[nH]c5cnc(-c6ccccn6)cc45)cc23)c1 [Compound 504, N-(3-Fluoro-5-(2-(5-(pyridin-2-yl)-1H-pyrazolo[3,4-c]pyridin-3-yl)-1H-pyrrolo[3,2-c]pyridin-4-yl)benzyl)methanesulfonamide]",1560 nM,–,–,1670 nM,2150 nM,3390 nM,–,–,–,–
"c1ccc(-c2cc3c(-c4cc5c(-c6cccs6)nccc5[nH]4)n[nH]c3cn2)nc1 [Compound 364, 5-(Pyridin-2-yl)-3-(4-(thiophen-2-yl)-1H-pyrrolo[3,2-c]pyridin-2-yl)-1H-pyrazolo[3,4-c]pyridine]",4140 nM,–,–,4040 nM,3300 nM,3120 nM,–,–,–,–
